Source: patent US20230233684A1, “USE OF CHELATORS FOR THE PREVENTION OF VISIBLE PARTICLE FORMATION IN PARENTERAL PROTEIN SOLUTIONS” (Hoffmann-La Roche Inc., priority 2020, published 2023)
Like-named read-outs stand apart in the source and are kept apart here.

Columns and labels:
Format in all cases: physicochemical
[1] = FFA particle nucleation by DLS: interaction of bi- and trivalent cations with lauric acid; conditions: for FFA salt particle formation and growth (DLS): metal ion 0-30 μM, 70 hours, 5° C.
Description: DLS experiments were performed on DynaPro(R) plate reader (Wyatt, Santa Barbara, Calif.). The DLS plate reader is flushed with nitrogen 5 hours before commencing the measurements and cooled down to 5° C. during the entire duration of the measurements. 200 μL of sample solutions comprising of 20 μg lauric acid (LA) in 20 mM L-Histidine buffer at pH 6.0 supplemented with 6% v/v DMSO, and varying amounts of metal ions (Al^3+, Fe^3, Zn^2+, Mg^2+, Ca^2+, Ni^2+) were mixed in the cuvettes of black glass bottom 96 well plates (Greiner Bio-One GmbH, Frickenhausen, Germany). FFA nucleation and particle growth were measured over 40-70 hours using a 633 nm laser and a backscatter detection system at 158°. The hydrodynamic particle radius (rH) was determined by fitting a cumulant fit to the obtained auto-correlation function. […] The laser power was adjusted before each measurement sequence and kept constant during the entire measurement. The attenuation level was set to zero for all measurements in order to collect the maximum amount of scattered light. Aluminium (Al), Iron (Fe), Zink (Zn), Magnesium (Mg), Calcium (Ca) and Nickel (Ni) stock solutions were prepared at 4 mM in Milli-Q water pH 2.5 from their respective salts and stored at 2-8° C. until used. Diluted sample solutions (100×) were freshly prepared in Milli-Q water pH 2.5. The DLS assay buffer was added to the salt sample solutions to attain metal ion target concentrations of 0, 1, 3, 10 and 30 μM. Particles size (rH) and intensity were measured over a period of 70 h as described above.

[2] = FFA particle nucleation by DLS: impact of aluminum concentration on particle kinetics; conditions: 20 ppb Al; 5° C.; not captured in the 40 hours experiment
Description: DLS experiments were performed on DynaPro(R) plate reader (Wyatt, Santa Barbara, Calif.). The DLS plate reader is flushed with nitrogen 5 hours before commencing the measurements and cooled down to 5° C. during the entire duration of the measurements. 200 μL of sample solutions comprising of 20 μg lauric acid (LA) in 20 mM L-Histidine buffer at pH 6.0 supplemented with 6% v/v DMSO, and varying amounts of metal ions (Al^3+, Fe^3, Zn^2+, Mg^2+, Ca^2+, Ni^2+) were mixed in the cuvettes of black glass bottom 96 well plates (Greiner Bio-One GmbH, Frickenhausen, Germany). FFA nucleation and particle growth were measured over 40-70 hours using a 633 nm laser and a backscatter detection system at 158°. The hydrodynamic particle radius (rH) was determined by fitting a cumulant fit to the obtained auto-correlation function. […]
Al sample solutions (100×) in 20 mM Histidine buffer pH 6.0 were prepared from a sterile 50 ppm Al stock solution (20 mM Glycine pH 2.5) and were spiked into the DLS assay buffer at target concentrations of 0, 20, 40, 60 and 100 ppb Al. Particle nucleation and growth was measured over a period of 40 hours as described above.
Quantitative analysis was performed by analyzing the intensity of the scattered laser light of the FFA particles over time by fitting a sigmoidal Boltzmann function to the growth curves. […]

[3] = Spiking study with free fatty acids and aluminum, visible particles by Seidenader (Table 4A); conditions: Seidenader results
Description: A 100 ppm aluminum stock solution was prepared from aluminum chloride hexahydrate in 20 mM histidine acetate pH 5.5. The actual concentration of aluminum was determined by inductively-coupled plasma mass spectrometry (ICP-MS). This stock solution was then diluted to 10 ppm Al^3+ and sterile-filtered through a 0.22 μm porosity filter cartridge (Sterivex-GV, Millipore).
All vials were sealed with 20 mm teflonized injection stoppers (D777-1, Daikyo) and aluminum crimp caps and homogenized on a MaxQ™ 4000 Benchtop Orbital Shaker (Thermo Scientific™, Waltham, Mass., USA) for 1 hour at 25° C.
LAMA-10 only comprised polysorbate 20 and was used for the preparation of negative controls. All samples were prepared in triplicates.
Samples were stored at 5° C. and the formation of visible particles was assessed for up to 28 days using a black/white and a Seidenader V 90-T instrument (Seidenader Maschinenbau GmbH, Markt Schwaben, DE) as described above.
Samples were analyzed for the presence of visible particles after storage at 2-8° C. for 0, 1 day, 7 days and 28 days using the (A) Seidenader and (B) E/P box.

[4] = Spiking study with partially degraded polysorbate 20 and aluminum, visible particles by E/P box; conditions: 0.05 mM DTPA or 0.005% (w/v) EDTA; 250 ppb aluminum; partially degraded polysorbate below the solubility limit
Description: Diluted aluminum solutions comprising in 20 mM histidine acetate pH 5.5 were prepared as described above and filled into 20 mL type I borosilicate glass vials (Schott, Mainz, DE). […] Vials were sealed with 20 mm teflonized injection stoppers (D777-1, Daikyo) and aluminum crimp caps and homogenized on a MaxQ™ 4000 Benchtop Orbital Shaker (Thermo Scientific™, Waltham, Mass., USA) for 1 hour at 25° C.
PS20-Std only comprised non-degraded polysorbate 20 and was used for the preparation of negative controls. All samples were prepared in triplicates.
Samples were stored at 5° C. and particle formation was assessed for up to 28 days by visual inspection using a black/white panel according Ph.
Samples were visually inspected (E/P box) for the presence of visible particles after incubation for 0, 1 day, 7 days and 28 days at 2-8° C.

[5] = FFA metal nucleation by DLS in presence of DTPA, Fe nucleation study
Description: (§1) DLS experiments were performed on DynaPro(R) plate reader (Wyatt, Santa Barbara, Calif.). The DLS plate reader is flushed with nitrogen 5 hours before commencing the measurements and cooled down to 5° C. during the entire duration of the measurements. 200 μL of sample solutions comprising of 20 μg lauric acid (LA) in 20 mM L-Histidine buffer at pH 6.0 supplemented with 6% v/v DMSO, and varying amounts of metal ions (Al^3+, Fe^3, Zn^2+, Mg^2+, Ca^2+, Ni^2+) were mixed in the cuvettes of black glass bottom 96 well plates (Greiner Bio-One GmbH, Frickenhausen, Germany). FFA nucleation and particle growth were measured over 40-70 hours using a 633 nm laser and a backscatter detection system at 158°. The hydrodynamic particle radius (rH) was determined by fitting a cumulant fit to the obtained auto-correlation function. The lower and upper boundary for the cumulant fit was set to lag times τ of 10 μs and 1000 μs respectively. The laser power was adjusted before each measurement sequence and kept constant during the entire measurement. The attenuation level was set to zero for all measurements in order to collect the maximum amount of scattered light.
For the Al nucleation study, a metal ion target concentration of 2 μM was used. […] For the Fe nucleation study, the target concentration of Fe was 4 μM. The final concentration of DTPA was either 0, 0.04, 0.4, 2.0, 4.0 or 40 μM resulting in molar ratios (DTPA:Fe) of 0, 0.01, 0.1, 0.5, 1.0 and 10, respectively. DLS measurements were conducted over 50 hours at 5° C. as described above.

[6] = FFA metal nucleation by DLS in presence of DTPA and real glass leachables; conditions: lauric acid and real glass leachables
Description: as §1
Representative glass leachables solutions were prepared according to a procedure disclosed in Allmendinger et al. (Allmendinger et al. 2021). […]

[7] = Spiking study with different PS20 and PS80 grades, aluminum and DTPA, visible particles by Seidenader (Table 11); conditions: DTPA, 250 ppb aluminum, independent of PS grade or enzyme
Description: (§2) Super refined (SR) PS20 and PS80, high purity (HP) PS20 and PS80, as well as pure oleic acid (POA) PS80 were enzymatically hydrolyzed by 10% using immobilized enzymes (Graf et al. 2020) (mucor miehei lipase (MML), Candida antarctica lipase (CAL) and Candida antarctica lipase B (CALB)). […] Diluted aluminum solutions comprising in 20 mM histidine acetate pH 5.5 were prepared as described above and filled into 20 mL type I borosilicate glass vials (Schott, Mainz, DE). Samples containing either 0 or 250 ppb of aluminum (Al^3) were spiked with different PS stock solutions (HP PS20, SR PS20, HP PS80, SR PS80, POA PS80; degradation level of 0 or 10%). In addition, samples containing 250 ppb aluminum were supplemented with 0.05 mM diethylenetriaminepentaacetic acid (DTPA) prior spiking with partially degraded PS. Vials were sealed with 20 mm teflonized injection stoppers (D777-1, Daikyo) and aluminum crimp caps and homogenized on a MaxQTM 4000 Benchtop Orbital Shaker (Thermo ScientificTM, Waltham, Mass., USA) for 1 hour at 25° C. […] Different grades of non-degraded polysorbate 20 and 80 served as negative controls. All samples were prepared in triplicates. Samples were stored at 5° C. and particle formation was assessed for up to 22 days by visual inspection using a black/white panel according Ph. Eur. 2.9.20. and enhanced visual inspection ([…] instrument) as described above.

[8] = Spiking study with different PS20 and PS80 grades, aluminum and DTPA, visible particles by E/P (Table 10); conditions: 50 μM DTPA, 250 ppb aluminum, all grades of PS
Description: as §2

[9] = Solubility of free fatty acids in histidine acetate buffer pH 5.5, visible particles by Seidenader; conditions: kinetic from dmso stock
Description: In brief, lauric acid (“LA”. Sigma-Aldrich/Merck, Darmstadt, DE) and myristic acid (“MA”, Sigma-Aldrich/Merck, Darmstadt, DE) were suspended in PS20 HP (Croda, Edison, N.J., USA) and stirred (150 rpm) for 30 min at 60° C. until both FFAs were fully dissolved. Solutions were diluted 1:5 with pre-warmed (60° C.) water for injection (WFI) and immediately filtered through 0.22 μm PVDF Steriflip filters (Merck Millipore, Darmstadt, DE). The concentration of LA and MA in FFA stock solutions was verified by LC-MS as described by Honemann et al. (Honemann et al. 2019) LA/MA/PS20 stock solutions were spiked into 20 mM histidine acetate buffer pH 5.5 (1:500 dilution, n=3) and homogenized on a MaxQ™ 4000 Benchtop Orbital Shaker (Thermo Scientific™, Waltham, Mass., USA) for 1 hour at 25° C. Samples were stored at 5° C. and analyzed for visible particles after 0, 1, 7 and 28 days using a black/white panel according Ph. Eur. 2.9.20 (European Directorate for the Quality of Medicines) and a Seidenader V 90-T instrument (Seidenader Maschinenbau GmbH, Markt Schwaben, DE). […]
Free fatty acid (FFA) stock solutions of lauric acid (LA) and myristic acid (MA) were spiked into 20 mM histidine acetate buffer pH 5.5 (n=3). Samples were analyzed for the presence of visible particles after incubation at 2-8° C. for 0, 1 day, 7 days and 28 days using the (A) Seidenader and (B) E/P box.

Structure (SMILES): [Al+3] [Al]
- FFA salt particle formation and growth (DLS) [1]: particle formation and growth
- Inflection point of the sigmoidal curve fit of scattering intensity [2]: around 65 hours
- Trace amount of aluminum sufficient to complex free fatty acids and form visible particles [3]: 10 ppb

Structure (SMILES): [Zn+2] [Zn]
- FFA salt particle formation and growth (DLS) [1]: did not lead to FFA salt particle formation or growth

Structure (SMILES): [Ca+2] [Ca]
- FFA salt particle formation and growth (DLS) [1]: did not lead to FFA salt particle formation or growth

Structure (SMILES): O=C(O)CN(CCN(CC(=O)O)CC(=O)O)CCN(CC(=O)O)CC(=O)O [DTPA, Diethylenetriaminepentaacetic acid]
- Formation of visible FFA particles on addition of chelator [4]: successfully prevented
- Particle radius ([5]; DTPA to Fe ratio of 0.5): only slightly changed
- Scattering intensity ([5]; DTPA to Fe ratio of 0.5): significantly decreased
- Particle formation and growth (DLS) ([5]; equimolar amounts of DTPA, lauric acid and 4 μM Fe): complete suppression
- Molar ratio of chelator to Al efficient in mitigating particle formation [6]: at least 1.5
- Particle formation in presence of the chelator [7]: significantly mitigated
- Visible particles in presence of the chelator [8]: no particles were observed

Structure (SMILES): [Ni+2] [Ni]
- FFA salt particle formation and growth (DLS) [1]: did not lead to FFA salt particle formation or growth

Structure (SMILES): CCCCCCCCCCCC(=O)O [lauric acid]
- solubility at 28 days ([9]; 20 mM histidine acetate buffer with 0.04% PS20, 5 °C, aqueous with cosolvent or surfactant or cyclodextrin, lauric and myristic acid together, histidine acetate buffer pH 5.5, 0.04% PS20, 2-8° C., 28 days, Seidenader and E/P box, read-out: Solubility limit (concentration at which free fatty acids exceeded the solubility limit)): < 12.5 µg/mL

Structure (SMILES): [Fe+3] [Fe]
- Hydrodynamic particle radius rH ([1]; instant particle formation, no further increase over time): 50-60 nm
- FFA salt particle formation and growth (DLS) [1]: particle formation and growth

Structure (SMILES): CCCCCCCCCCCCCC(=O)O [myristic acid]
- solubility at 28 days ([9]; 5 °C, pH 5.5, aqueous with cosolvent or surfactant or cyclodextrin): < 5 µg/mL

Structure (SMILES): [Mg+2] [Mg]
- FFA salt particle formation and growth (DLS) [1]: did not lead to FFA salt particle formation or growth
